The values below are quoted from earlier work in paper PMC10385579, “Design, Synthesis, and Biological Evaluation of Indole-2-carboxamides as Potential Multi-Target Antiproliferative Agents” (Pharmaceuticals, 2023).

The subject of one series is EGFR^T790M. The arrangement: method as in PMID 32920363, PMID 29407956, PMID 36770936, PMID 36015154, PMID 35078049. The note with it: cited from earlier work.
The subject of another series is BRAF^V600E. The arrangement: method as in PMID 32920363, PMID 29407956, PMID 36770936, PMID 36015154, PMID 35078049. Conditions: cited from earlier work.
The next series has as its system cancer cell lines. Also on record: method as in PMID 32920363, PMID 29407956, PMID 36770936, PMID 36015154, PMID 35078049. The note with it: four cancer cell lines; read-out: GI50 vs four cancer cell lines; cited from earlier work.
Series [1] has as its system mutant EGFR vs wild-type EGFR. Conditions: cited from earlier work.

For `CCOC(=O)c1[nH]c2ccc(Cl)cc2c1CNCCc1cccc(N2CCCCC2)c1` [Compound 11], the IC50 with EGFR^T790M is 8.6 nM; in the series on BRAF^V600E it was 35 nM. In addition, the GI50 with cancer cell lines was 29 nM.

In the case of `C=CC(=O)Nc1cc(Nc2nccc(-c3cn(C)c4ccccc34)n2)c(OC)cc1N(C)CCN(C)C` [Osimertinib], in series [1], the “selectivity for the mutant protein over wild-type EGFR” value is reported as “approximately 200 times”.

The IC50 is the concentration that inhibits the measured activity by half. For orientation: GI50 means the concentration at which growth is held to half of that of the control.
